Tests used:
CEM/VM-1-5 cells (MDR+) = assay: cells; assay type: cell-based, human; conditions: for IC50: Homo sapiens, read-out: IC50 CEM/VM-1-5 (MDR + HTL), CEM/VM-1-5, MTT; for Degree of resistance (CEM/VM-1-5): IC50 of the resistant line divided by IC50 of sensitive CEM cells
Source text: A second evaluation of the cytotoxicity of the acid labile, lipophilic molecular conjugates was undertaken. […]
(§1) The second set of cells tested, CCRF-CEM or simply CEM, were derived from the blood of a patient with acute lymphoblastic leukemia. G. E. Foley, H. Lazarus, S. Farber, B. G. Uzman, B. A. Boone, and R E. McCarthy. Continuous culture of human lymphoblasts from peripheral blood of a child with acute leukemia. Cancer 18: 522-529 (1965). The subline CEM/VLB100 was developed to be resistant to up to vinblastine at 100 ng/ml. W. T. Beck, T. J. Mueller, and L. R. Tanzer. Altered surface membrane glycoproteins in Vinca alkaloid-resistant human leukemic lymphoblasts. Cancer Research 39: 2070-2076 (1979). Drug resistance is achieved by overexpression of the MDR1 gene. Resistance in the CEM subline designated CEM/VM-1-5, however, is “atypical.” M. K. Danks, J. C. Yalowich, and W. T. Beck. Atypical multiple drug resistance in a human leukemic cell line selected for resistance to teniposide (VM-26). Cancer Research 47: 1297-1301 (1987). The classes of drugs included in the “classic” multiple drug resistance phenotype are Vinca alkaloids, anthracyclines, epipodophyllotoxins and antibiotics. However, CEM/VM-1-5 cells retain sensitivity to the Vinca alkaloids despite resistance and cross-resistance to etoposide, anthracyclines and mitoxantrone. Danks, M. K.; Schmidt, C. A.; Cirtain, M. C.; Suttle, D. P.; Beck, W. T., Altered catalytic activity of and DNA cleavage by DNA topoisomerase II from human leukemic cells selected for resistance to VM-26. Biochemistry 1988, 27, 8861-8869. Resistance in CEM/VM-1-5 cells is effected by over expression of the […]. CEM, CEM/VLB100 and CEM/VM-1-5 cells were obtained from Dr. WT Beck, University of Illinois at Chicago.

CEM/VLB100 cells (MDR+) = assay: cells; assay type: cell-based, human; conditions: for IC50: Homo sapiens, CEM/VLB100, read-out: IC50 CEM/VLB100 (MDR + HTL), CEM/VLB100, MTT; for Degree of resistance (CEM/VLB100): IC50 of the resistant line divided by IC50 of sensitive CEM cells
Source text: A second evaluation of the cytotoxicity of the acid labile, lipophilic molecular conjugates was undertaken.
These lines included a uterine sarcoma line, MES-SA, and its doxorubicin-resistant subline, MES-SA/Dx5. See W. G. Harker, F. R MacKintosh, and B. I. Sikic. Development and characterization of a human sarcoma cell line, MES-SA, sensitive to multiple drugs. Cancer Research 43: 4943-4950 (1983); W. G. Harker and B. I. Sikic. Multidrug (pleiotropic) resistance in doxorubicin-selected variants of the human sarcoma cell line MES-SA. Cancer Research 45: 4091 4096 (1985).
as §1

[1] = Stability in human plasma when added in a lipid emulsion (Liposyn); assay type: in vitro ADME; conditions: 37° C.
Method: HPLC grade Methanol from Fisher (Fair lawn, NJ, USA). Part No: A452-4 (074833). HPLC grade Water from Fisher (Fair lawn, NJ, USA). Part No: W5-4 (073352). Drug-free mouse, rat and human plasmas were purchased from Innovative Research Inc. (Southfield, Mich., USA). LIPOSYN® I.V. (30% soybean oil and egg yolk phospholipids, Abbott Laboratories) Fat Emulsion from Hospira, Inc. (Lake Forest, Ill.).
Chromatographic separation of the compounds was performed on a Waters Acquity UPLC™ using a BEH C18 column (1.7 μm, 2.1×50 mm). The mobile phase consisted of Methanol: 0.1% Formic acid (80:20). The flow rate was 0.3 ml/min; the sample injection volume was 5 μL, resulting in a 3 minute run time.
The MS instrumentation consisted of a Waters Micromass Quattro Micro™ triple-quadrupole system (Manchester, UK). The MS system was controlled by a 4.0 version of MassLynx software. Ionization was performed in the positive electrospray ionization mode. MS/MS conditions were the following: capillary voltage 3.02 kV; cone voltage 50 v; extractor voltage 5 v; and RF lens voltage 0.5 v. The source and desolvation temperatures were 100° C. and 400° C. respectively, and the desolvation and cone gas flow were 400 and 30 L/hr, respectively.
The selected mass-to-charge (m/z) ratio transitions of the ART 198 used in the selected ion monitoring (SIM) were: for ART 198, 617 (M+K)^+, for ART 273, 589 (M+K)^+, for ART 488, 913 (M+Na)^+, and for ART 489, 957 (M+Na)^+. The dwell time was set at 200 msec. MS conditions were optimized using direct infusion of standard solutions prepared in methanol and delivered by a syringe pump at a flow rate of 20 μL/min.
Samples of 100 μL were collected at time points of 0, 15, 30, 45, 60, 75, 90, 105, 120, 135, 150, 165, 180, 210, 240, 300, 360 and 480 minutes respectively and the reaction was terminated with methanol. In a separate set of experiments the acid labile, lipophilic molecular conjugates were dissolved in a small amount of ethanol and diluted into a lipid emulsion (Liposyn®) and added to mouse and human plasma before incubation and the hydrolysis of the conjugates was similarly measured. Collected plasma samples of 100 μL containing drug were placed in separate Eppendorf micro centrifuge tubes for processing. Methanol (200 μL) was added to extract the drug using the protein precipitation technique. The micro tubes were then vortex mixed for 10 minutes and centrifuged for 15 minutes at a speed of 10,000 rpm (Eppendorf 5415C centrifuge). The supernatant was collected and filtered using a 0.45 μm filter (Waters 13 mm GHP 0.45 μm) before analysis.
Samples were collected at various times and the percent remaining of the acid labile, lipophilic molecular conjugate of the cancer chemotherapeutic agent was determined along with the percent of the chemotherapeutic agent released from the hydrolysis of the conjugate.

Row | SMILES | IC50 (CEM/VM-1-5 cells (MDR+)) | Degree of resistance (CEM/VM-1-5) (CEM/VM-1-5 cells (MDR+)) | IC50 (CEM/VLB100 cells (MDR+)) | Degree of resistance (CEM/VLB100) (CEM/VLB100 cells (MDR+)) | percent remaining of initial drug ([1]; 0 min) | percent remaining of initial drug ([1]; 15 min) | percent remaining of initial drug ([1]; 30 min) | percent remaining of initial drug ([1]; 45 min) | percent remaining of initial drug ([1]; 60 min) | percent remaining of initial drug ([1]; 75 min) | percent remaining of initial drug ([1]; 90 min) | percent remaining of initial drug ([1]; 105 min) | percent remaining of initial drug ([1]; 120 min) | percent remaining of initial drug ([1]; 135 min) | percent remaining of initial drug ([1]; 150 min) | percent remaining of initial drug ([1]; 165 min) | percent remaining of initial drug ([1]; 180 min) | percent remaining of initial drug ([1]; 210 min) | percent remaining of initial drug ([1]; 240 min) | percent remaining of initial drug ([1]; 300 min) | also measured
1 | COC(=O)[C@@]12OC[C@]34[C@H]([C@@H](O)[C@@H]1O)[C@@]1(C)CC(=O)C(O)=C(C)[C@@H]1C[C@H]3OC(=O)C(OC(=O)CC1(O)CCCCC1)[C@@H]24 (stereo partly drawn) [ART 198] | 308 ± 10 nM | 3 ± 1 | 7190 ± 1920 nM | 76 ± 52 | – | – | – | – | – | – | – | – | – | – | – | – | – | – | – | – | –
2 | CCCCCCCCCCCCCCCC1OCC(COC(=O)O[C@@H]2C(=O)C=C(C)[C@@H]3C[C@H]4OC(=O)C(OC(=O)CC(O)(C(C)C)C(C)C)C5[C@@H](C)[C@@H](O)[C@@]6(O)OC[C@@]54C6[C@@]23C)O1 (stereo partly drawn) [ART 488] | 8 ± 4 nM | 2 ± 1 | 34 ± 12 nM | 9 ± 4 | 100% | 98.3% | 97.3% | 96.1% | 95.8% | 95.3% | 95.6% | 94.6% | 94.5% | 92.5% | 92.2% | 91.9% | 91.0% | 91.0% | 90.7% | 90.7% | percent remaining of initial drug ([1]; 360 min): 90.2%; percent remaining of initial drug ([1]; 480 min): 88.1%
3 | CCCCCCCCCCCCCCCC1OCC(COC(=O)OC2=C(C)[C@@H]3C[C@H]4OC(=O)C(OC(=O)CC5(O)CCCCC5)[C@H]5[C@]6(C(=O)OC)OC[C@]45[C@H]([C@@H](O)[C@@H]6O)[C@@]3(C)CC2=O)O1 (stereo partly drawn) [ART 489] | 24 ± 4 nM | 1.2 ± 0.07 | 670 ± 71 nM | 33 ± 0 | 100% | 98.4% | 93.9% | 92.7% | 88.2% | 87.9% | 87.5% | 86.4% | 86.4% | 84.7% | 84.6% | 83.7% | 82.9% | 82.0% | 81.4% | 80.2% | percent remaining of initial drug ([1]; 360 min): 78.2%; percent remaining of initial drug ([1]; 480 min): 76.6%

Source: US10172957B2, “Acid-labile lipophilic prodrugs of cancer chemotherapeutic agents” (priority 2011, dated 2019)
